For one assay, the system named is bacteria. Kind of assay: Activity in DMEM and RPMI media (lysis of bacteria). It counts as cell-based. The arrangement: key to Active in DMEM: YES: Active in DMEM; a blank means no activity. The protocol: The CFU assay is the “gold standard” for evaluating antibiotics. Briefly, bacteria are grown overnight in rich medium, such as LB, and then diluted and grown in log phase for 2-4 hours. Cultures are set up as above, with the initial culture media being 10 mM phosphate buffer/0.03% LB; DMEM or RPMI; or DMEM or RPMI plus 10% serum (fetal calf, human, or mouse). After various periods of time, but generally 3 hours or less, aliquots are removed, diluted in LB at various dilutions, and plated on LB agar plates. Plates are incubated overnight at 37° C. and counted on an automatic colony counter.
In the column “Active in DMEM”, a blank means no activity. MAP stands for multiple antigenic peptide, where a number of identical peptide chains are synthesized and joined to a common core (like a dendrimer).
The peptides listed in Table 2 were tested in DMEM and RPMI, media that approximate blood and tissue conditions in vivo and those that were active under these conditions are listed in the last column (active in DMEM). […] No peptides that were all L-isomer peptides lysed bacteria in DMEM supplemented with serum.
The hydrophobic moment is a measure of amphipathicity and indicates how well the hydrophobic residues fall on one side of the helix while the hydrophilic residues fall on the opposite side is shown in column 7. This was determined using the Membrane Explorer Program (http://blanco.biomol.uci.edu/mpex/). A high number indicates a high hydrophobic moment. Column 8 again (like Table 2) indicates which of these peptides is active in DMEM.

The test system of the next assay is E. coli DH5a. The class given is cell-based. The settings on record: DH5a, pH 7.2. The method in brief:
(§1)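 First, peptides in 10 mM phosphate pH 7.2 with 0.03% LB meet bacteria (~5×10^6 CFU/ml). Second, incubation runs 3 h at 37 °C. Third, LB is added and plates grow overnight before OD600 reading.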

For the next assay, the system named is B. cereus. It counts as cell-based. The settings on record: pH 7.2. The method, boiled down: as §1
For the next assay, the system named is Salmonella. The class given is cell-based, S. typhimurium. The note with it: pH 7.2. The method, boiled down:
as §1

Square brackets hold non-standard residues; d marks the D form. Ends that are not written are not given here. Peptide text beside a SMILES is read from it. Some results are limits rather than exact numbers.

`CSCC[C@@H]1NC(=O)[C@H](Cc2ccccc2)NC(=O)[C@H](CCCCN)NC(=O)[C@H](CCCCN)NC(=O)[C@H](CO)NC(=O)[C@H](C(C)C)NC(=O)[C@H](CCCCN)NC(=O)[C@H](CCCCN)NC(=O)[C@H](CC(N)=O)NC(=O)[C@H](CCCCN)NC(=O)[C@H](CCCCN)NC(=O)[C@H](CCSC)NC(=O)[C@H](Cc2ccccc2)NC(=O)[C@H](CCCCN)NC(=O)[C@H](CCCCN)NC(=O)[C@H](CO)NC(=O)[C@H](C(C)C)NC(=O)[C@H](CCCCN)NC(=O)[C@H](CCCCN)NC(=O)[C@H](CO)NC(=O)CNC(=O)[C@H](CCCCN)NC(=O)[C@H](CCCCN)NC1=O` [G11.32 CYC]: the “Active in DMEM” value with bacteria (Table 2, tested in DMEM and RPMI) was “YES”. In the assay with E. coli DH5a, the “E. coli DH5a MIC” value amounted to 0.35 µM and the IC50 is 0.2 µM. For the same compound, in the assay with B. cereus, the “B. cereus MIC” value was 0.35 µM and the IC50 stood at 0.21 µM. Besides, in the assay on Salmonella, the IC50 was 0.21 µM and the “Salmonella MIC” value came to 0.35 µM.

As to `CSCC[C@@H](NC(=O)[C@H]1CCCN1C(=O)[C@@H](CCCCN)NC(=O)[C@@H](CCCCN)NC(=O)[C@@H](CO)NC(=O)[C@H](NC(=O)[C@@H](CCCCN)NC(=O)[C@H](N)CCCCN)C(C)C)C(=O)N[C@H](CCCCN)C(=O)N[C@H](CCCCN)C(=O)N[C@H](Cc1ccc(O)cc1)C(=O)N[C@H](CCCCN)C(=O)N[C@H](CO)C(=O)N[C@H](CCCCN)C(=O)N[C@H](CCCCN)C(=O)N1CCC[C@@H]1C(=O)N[C@H](CCCCN)C(=O)N[C@H](CCCCN)C(=O)N[C@H](CC(C)C)C(=O)N[C@@H](C(=O)O)C(C)C` [Peptide G12.28, kkvskkpmkkykskkpkklv] (H-[dK][dK][dV][dS][dK][dK][dP][dM][dK][dK][dY][dK][dS][dK][dK][dP][dK][dK][dL][dV]-OH; N-terminus and C-terminus assumed), in the assay on bacteria (medium not stated), the “antimicrobial / antibacterial activity” value was “inactive peptide”.

Regarding RRLLRRLLRR [Peptide G11.20, RRLLRRLLRR], in the assay on E. coli DH5a, the “E. coli DH5a MIC” value was >10 µM and inhibition was half-maximal at 7.7 µM (IC50). In addition, in the assay on B. cereus, the “B. cereus MIC” value is >10 µM and the IC50 was > 10 µM. Moreover, in the assay with Salmonella, inhibition was half-maximal at 7.69 µM (IC50) and the “Salmonella MIC” value was >10 µM.

On to RRLLRRLLRRGSRRLLRRLLRR [Peptide G11.23], for which, in the assay with E. coli DH5a, the “E. coli DH5a MIC” value is 0.7 µM and the IC50 is 0.45 µM. Also, in the assay with B. cereus, the “B. cereus MIC” value was 0.7 µM and the concentration for half-maximal inhibition (IC50) is 0.41 µM. In the assay with Salmonella, half-maximal inhibition (IC50) required 0.45 µM and the “Salmonella MIC” value was 0.71 µM.

On to RRPSRRFPRR [Peptide G11.37, RRPSRRFPRR], for which, in the assay with E. coli DH5a, the “E. coli DH5a MIC” value was determined as 2.4 µM and 0.45 µM corresponded to half-maximal inhibition (IC50). Also, in the assay on B. cereus, the “B. cereus MIC” value was >10 µM and the IC50 was > 10 µM. In the assay with Salmonella, half-maximal inhibition (IC50) required 1.68 µM and the “Salmonella MIC” value was determined as 2.9 µM.

As to RRVSRRFMRR [Peptide G11.3, RRVSRRFMRR], in the assay on E. coli DH5a, the “E. coli DH5a MIC” value amounted to 2.85 µM and half-maximal inhibition (IC50) was put at 1.76 µM. In the assay on B. cereus, the “B. cereus MIC” value was >10 µM and the IC50 is 7.7 µM. Besides, in the assay on Salmonella, the half-inhibitory concentration (IC50) is > 10 µM and the “Salmonella MIC” value is >10 µM.

Take RRVSRRFMRR [Peptide G11.44, RRVSRRFMRR]: in the assay with E. coli DH5a, the “E. coli DH5a MIC” value was determined as 0.38 µM and 0.21 µM corresponded to half-maximal inhibition (IC50). In the assay on B. cereus, the “B. cereus MIC” value was >10 µM and the IC50 amounted to 7.7 µM. In the assay with Salmonella, the concentration for half-maximal inhibition (IC50) was 3.15 µM and the “Salmonella MIC” value was determined as 5.75 µM.

As for RRVSRRFMRRGSRRVSRRFMRR [Peptide G11.7], in the assay with E. coli DH5a, the “E. coli DH5a MIC” value stood at 0.35 µM and half-maximal inhibition (IC50) required 0.21 µM. In the assay with B. cereus, the “B. cereus MIC” value worked out at 0.35 µM and the midpoint of inhibition, the IC50, lay at 0.21 µM. In addition, in the assay on Salmonella, the IC50 came to 0.21 µM and the “Salmonella MIC” value amounted to 0.35 µM.

As to “RRVSRRFMRRGSRRVSRRFMRRGSRRVSRRFMRR [Peptide G11.10]”, in the assay on E. coli DH5a, the “E. coli DH5a MIC” value turned out to be 0.35 µM and the IC50 was 0.21 µM. For the same compound, in the assay on B. cereus, the “B. cereus MIC” value is 0.35 µM and the midpoint of inhibition, the IC50, lay at 0.21 µM. In the assay on Salmonella, the IC50 was found to be 0.21 µM and the “Salmonella MIC” value was determined as 0.35 µM.

For the compound “RRVSRRFMRRSGSGSGSGQQMVQQSGQQFS [Peptide G11.40]”, in the assay with E. coli DH5a, the “E. coli DH5a MIC” value was >10 µM and the IC50 came out at 3.28 µM. For the same compound, in the assay on B. cereus, the “B. cereus MIC” value is >10 µM and the IC50 was > 10 µM. In the assay with Salmonella, the IC50 is > 10 µM and the “Salmonella MIC” value is >10 µM.

For the compound “RRVSRRFMRRSRWARKGSGQMVQQSSQQFQ [Peptide G11.41]”, in the assay with E. coli DH5a, the “E. coli DH5a MIC” value was determined as 3.5 µM and the half-maximal inhibitory concentration (IC50) is 0.96 µM. Further, in the assay on B. cereus, the “B. cereus MIC” value was 1.38 µM and the IC50 is 0.89 µM. In the assay with Salmonella, the half-inhibitory concentration (IC50) was determined as 3.25 µM and the “Salmonella MIC” value was 5.6 µM.

Turning to RRVSRRFMRRYQSRVIQGLV [Peptide G12.6], in the assay with E. coli DH5a, the “E. coli DH5a MIC” value is 1.45 µM and the IC50 came to 0.89 µM. Further, in the assay with B. cereus, the “B. cereus MIC” value was found to be 0.7 µM and the IC50 amounted to 0.42 µM. Further, in the assay on Salmonella, the IC50 was determined as 0.9 µM and the “Salmonella MIC” value was found to be 1.45 µM.

With RRVSRRFMRRYQSRVPQGLV [Peptide G12.10], in the assay with E. coli DH5a, the “E. coli DH5a MIC” value stood at 0.7 µM and half-maximal inhibition (IC50) was put at 0.45 µM. In the assay with B. cereus, the “B. cereus MIC” value stood at 1.4 µM and the IC50 was found to be 0.89 µM. Besides, in the assay on Salmonella, the IC50 stood at 0.85 µM and the “Salmonella MIC” value was found to be 1.4 µM.

As for RRVSRRFMRRYRSRRIRRLV [Peptide G12.8], in the assay with E. coli DH5a, the “E. coli DH5a MIC” value was 0.7 µM and the IC50 came out at 0.45 µM. Further, in the assay on B. cereus, the “B. cereus MIC” value amounted to 0.71 µM and the IC50 amounted to 0.45 µM. In the assay on Salmonella, the IC50 worked out at 0.41 µM and the “Salmonella MIC” value came to 0.65 µM.

As to RRVSRRFMRRYRSRVIRGLV [Peptide G12.7], in the assay on E. coli DH5a, the “E. coli DH5a MIC” value worked out at 0.71 µM and the IC50 came to 0.25 µM. In the assay with B. cereus, the “B. cereus MIC” value is 0.35 µM and the IC50 stood at 0.21 µM. Moreover, in the assay with Salmonella, the IC50 was found to be 0.22 µM and the “Salmonella MIC” value is 0.35 µM.

For the compound RRVVRRFMRR [Peptide G11.16, RRVVRRFMRR], in the assay on E. coli DH5a, the “E. coli DH5a MIC” value is 1.4 µM and the IC50 was found to be 0.8 µM. For the same compound, in the assay on B. cereus, the “B. cereus MIC” value is >10 µM and the IC50 turned out to be 7.7 µM. In addition, in the assay with Salmonella, the IC50 amounted to 3.45 µM and the “Salmonella MIC” value came out at 5.6 µM.

With RRVVRRLLRR [Peptide G11.19, RRVVRRLLRR], in the assay with E. coli DH5a, the “E. coli DH5a MIC” value is >10 µM and the half-inhibitory concentration (IC50) amounted to 7.45 µM. In addition, in the assay on B. cereus, the “B. cereus MIC” value amounted to 6.65 µM and it took 3.41 µM to reach half-maximal inhibition (IC50). For the same compound, in the assay with Salmonella, the IC50 worked out at 7.69 µM and the “Salmonella MIC” value was >10 µM.

On to “SDVAKKFMKKQSKVIKKLV [Peptide G12.23, SDVAKKFMKKQSKVIKKLV]”, for which, in the assay with E. coli DH5a, the “E. coli DH5a MIC” value came to 3 µM and the IC50 is 1 µM. Also, in the assay on B. cereus, the “B. cereus MIC” value was >10 µM and the IC50 came to 7.7 µM. For the same compound, in the assay on Salmonella, the IC50 was > 10 µM and the “Salmonella MIC” value is >10 µM.

Consider “SDVARRFMRRQSRVIRRLV [Peptide G12.22, SDVARRFMRRQSRVIRRLV]”, for which, in the assay on E. coli DH5a, the “E. coli DH5a MIC” value was determined as 1.38 µM and it took 0.87 µM to reach half-maximal inhibition (IC50). Besides, in the assay on B. cereus, the “B. cereus MIC” value came out at 5.7 µM and half-maximal inhibition (IC50) was put at 3.5 µM. Moreover, in the assay with Salmonella, the IC50 was 0.89 µM and the “Salmonella MIC” value worked out at 1.39 µM.

Consider “VHKRRVSRRFMRRLGH [Peptide G11.42, VHKRRVSRRFMRRLGH]”, for which, in the assay on E. coli DH5a, the “E. coli DH5a MIC” value turned out to be 0.35 µM and the midpoint of inhibition, the IC50, lay at 0.21 µM. In the assay on B. cereus, the “B. cereus MIC” value turned out to be 0.4 µM and half-maximal inhibition (IC50) required 0.11 µM. In the assay on Salmonella, the half-inhibitory concentration (IC50) stood at 1.35 µM and the “Salmonella MIC” value is 2.8 µM.

Turning to “WRDVSRNFMRRGRSRGWRDVSRNFMRR [Peptide G11.36]”, in the assay with E. coli DH5a, the “E. coli DH5a MIC” value is 0.7 µM and the IC50 is 0.45 µM. In addition, in the assay with B. cereus, the “B. cereus MIC” value was 0.7 µM and the half-inhibitory concentration (IC50) came out at 0.41 µM. In the assay with Salmonella, the midpoint of inhibition, the IC50, lay at 0.89 µM and the “Salmonella MIC” value is 1.38 µM.

By IC50 is commonly meant the concentration that inhibits the measured activity by half.

These data come from US7745390B2, “Antimicrobial peptides” (priority 2005, dated 2010).
